Common to all, as to test: Antitumor bioactivity evaluation, breast cancer cells (ATPlite)
(ATP-based viability assays read luminescence as a measure of living cells.)

One test relates to BT/Lap^R1.0. In kind it is cell-based, human. The conditions noted are these: Homo sapiens; test sample 5 μM, 72 hours; read-out: Inhibitory Rate % BT/Lap^R1.0. The method, then:
(§1) Antitumor bioactivity evaluation of the compounds of Examples according to the method described below
(§2) Cells plating: a 100 mm culture dish with overgrown adherent cells was digested with 1 ml 0.25% trypsin (GIBCO) at 37° C. for 5 min, and the reaction was terminated with 2 ml culture medium (containing 10% FBS, GIBCO). The cells were scattered and collected, after counting, diluted to 1×10^5 cells/ml, and seeded into a 96-well plate at 50 μl/well, 5000 cells/well, excluding the peripheral circle of wells in which no cell was added, but PBS was added, 60 wells in total, and then incubated at 37° C. for 24 hours for adhering.
(§3) Addition of the compound and lapatinib: the test sample was diluted to a final concentration of 5 μM, and the culture medium with the corresponding compound solvent concentration was filled in the control well, the compound solvent concentration was kept consistent in each well, 5 parellel wells were set for each concentration, 25 μl each well, 25 μl culture medium (in combined group, 25 μl lapatinib was added till a final concentration of 1 μM) supplemented, followed by incubation at 37° C. for 72 hours.
(§4) Test after incubation at 37° C. for 72 hours: 50 μL of ATPlite kit substrate solution was added in each well, and vibrated for 3 min, followed by placing aside in darkness for 10 min, and then supernatant 100 μl/well was taken and placed on aluminescence test plate; the luminescence test plate that has been fully incubated was placed in a luminescence test instrument, to read luminescence value.
(§5) 1. Cell survival rate (%)=Experimental group RLU/control group RLU×100%. The experimental data were subjected to data analysis and processing by utilizing GraphPad software.

A further test has as its system BT474. The format is cell-based. The following applies: Homo sapiens, BT-474; test sample 5 μM, 72 hours; read-out: Inhibitory Rate % BT474. The method, then: as §1, §2, §3, §4, §5
Another test concerns MDA-MB-453. In kind it is cell-based. The following applies: Homo sapiens, test sample 5 μM, 72 hours, read-out: Inhibitory Rate % MDA-MB-453. The method, then:
as §1, §2, §3, §4, §5

Another test has as its system MDA-MB-361. The format is cell-based. The following applies: Homo sapiens, test sample 5 μM, 72 hours, read-out: Inhibitory Rate % MDA-MB-361. As for the experimental part: as §1, §2, §3, §4, §5
A further test relates to SK/Lap^R1.0. In kind it is cell-based. The conditions noted are these: Homo sapiens; test sample 5 μM, 72 hours; read-out: Inhibitory Rate % SKLap^R1.0. As for the experimental part:
as §1, §2, §3, §4, §5

For a further test, the system named is SK-BR3. In kind it is cell-based. The following applies: Homo sapiens, SK-BR-3; test sample 5 μM, 72 hours; read-out: Inhibitory Rate % SK-BR3. The method, then:
as §1, §2, §3, §4, §5

The structures appear in SMILES notation.

On to `CCOc1ncc(CN2CCC(N(C)Cc3cccc(Cl)c3)CC2)s1` [Example 1, N-methyl-N-m-chlorobenzyl-N-{1-[(2-ethoxythiazol-5-yl)methyl]piperidin-4-yl}amine], for which the inhibition at 5 µM in the test with BT/Lap^R1.0 came to 12.5%; with BT474, 14.4%; in the test on MDA-MB-453, 41.2%; in the test on MDA-MB-361, 14.2%; in the test on SK/Lap^R1.0 it was 5.2%; with SK-BR3, 16.7%.

Turning to `CCOc1ncc(CN2CCC(N(C)Cc3ccccc3C#N)CC2)s1` [Example 2, N-methyl-N-o-cyanobenzyl-N-{1-[(2-ethoxythiazol-5-yl)methyl]piperidin-4-yl}amine], the inhibition at 5 µM in the test with BT/Lap^R1.0 came to 19.4%; with BT474 it was 17.6%; in the test on MDA-MB-453 it was 43.8%; in the test on MDA-MB-361, 12.3%; in the test with SK/Lap^R1.0, 7.2%; with SK-BR3, 13.6%.

As for `CCOc1ncc(CN2CCC(N(C)Cc3ccc(Cl)c(Cl)c3)CC2)s1` [Example 3, N-methyl-N-(3,4-dichlorobenzyl)-N-{1-[(2-ethoxythiazol-5-yl)methyl]piperidin-4-yl}amine], the inhibition at 5 µM stood at 67.4% in the test on BT/Lap^R1.0; 62.9% in the test on BT474; 71.6% with MDA-MB-453; 35.8% with MDA-MB-361; 13.1% in the test with SK/Lap^R1.0; 41.2% in the test on SK-BR3.

`CCOc1ncc(CN2CCC(N(C)Cc3ccc(C#N)cc3)CC2)s1` [Example 4, N-methyl-N-(4-cyanobenzyl)-N-{1-[(2-ethoxythiazol-5-yl)methyl]piperidin-4-yl}amine]: the inhibition at 5 µM in the test on BT/Lap^R1.0 came out at 66.1%; in the test on BT474, 61.7%; in the test on MDA-MB-453, 70.5%; in the test with MDA-MB-361, 51.3%; with SK/Lap^R1.0, 6.7%; in the test on SK-BR3, 45.5%.

For the compound `CCOc1ncc(CN2CCC(N(C)Cc3c(F)cccc3Cl)CC2)s1` [Example 5, N-methyl-N-(2-fluoro-6-chlorobenzyl)-N-{1-[(2-ethoxythiazol-5-yl)methyl]piperidin-4-yl} amine], the inhibition at 5 µM is 50.5% in the test on BT/Lap^R1.0; 54.4% in the test on BT474; 67.4% with MDA-MB-453; 32.8% with MDA-MB-361; 11.7% with SK/Lap^R1.0; 40.9% in the test on SK-BR3.

Regarding `CCOc1ncc(CN2CCC(N(C)Cc3ccccc3Cl)CC2)s1` [Example 6, N-methyl-N-(2-chlorobenzyl)-N-{1-[(2-ethoxythiazol-5-yl)methyl]piperidin-4-yl}amine], the inhibition at 5 µM turned out to be 13.3% in the test with BT/Lap^R1.0; 10.1% in the test on BT474; 36.4% in the test on MDA-MB-453; 33.3% in the test with MDA-MB-361; 0.6% in the test with SK/Lap^R1.0; 12.6% in the test on SK-BR3.

Turning to `CCOc1ncc(CN2CCC(N(C)Cc3ccc(F)cc3)CC2)s1` [Example 7, N-methyl-N-(4-fluorobenzyl)-N-{[1-(2-ethoxythiazol-5-yl)methyl]piperidin-4-yl}amine], the inhibition at 5 µM with BT/Lap^R1.0 was found to be 20.7%; in the test with BT474 it was 36.4%; in the test with MDA-MB-453 it was 52.9%; with MDA-MB-361, 24.2%; in the test on SK/Lap^R1.0, 25.1%; with SK-BR3, 26%.

Turning to `CCOc1ncc(CN2CCC(N(C)Cc3ccc(Cl)cc3Cl)CC2)s1` [Example 8, N-methyl-N-(2,4-dichlorobenzyl)-N-{[1-(2-ethoxythiazol-5-yl)methyl]piperidin-4-yl}amine], the inhibition at 5 µM in the test on BT/Lap^R1.0 amounted to 65.9%; in the test on BT474, 70.3%; in the test with MDA-MB-453 it was 71.3%; in the test on MDA-MB-361 it was 49.2%; in the test with SK/Lap^R1.0 it was 12%; in the test on SK-BR3 it was 41.6%.

In the case of `CCOc1ncc(CN2CCC(N(C)Cc3c(Cl)cccc3Cl)CC2)s1` [Example 9, N-methyl-N-(2,6-dichlorobenzyl)-N-{[1-(2-ethoxythiazol-5-yl)methyl]piperidin-4-yl}amine], the inhibition at 5 µM was 25.6% in the test on BT/Lap^R1.0; 38.2% in the test on BT474; 51.5% in the test with MDA-MB-453; 24.5% in the test with MDA-MB-361; 5.1% with SK/Lap^R1.0; 17.9% in the test with SK-BR3.

In the case of `CCOc1ncc(CN2CCC(N(C)Cc3cc(Cl)ccc3Cl)CC2)s1` [Example 10, N-methyl-N-(2,5-dichlorobenzyl)-N-{[1-(2-ethoxythiazol-5-yl)methyl]piperidin-4-yl}amine], the inhibition at 5 µM came to 9.6% in the test on BT/Lap^R1.0; 5.6% in the test with BT474; 23.9% in the test with MDA-MB-453; 25.3% with MDA-MB-361; 5.2% with SK/Lap^R1.0; 9.4% in the test on SK-BR3.

On to `Clc1ncc(CN2CCC(NCc3ccc(Cl)c(Cl)c3)CC2)s1` [Example 11, N-(3,4-dichlorobenzyl)-N-{1-[(2-chlorothiazol-5-yl)methyl]piperidin-4-yl}amine], for which the inhibition at 5 µM in the test on BT/Lap^R1.0 came to 10.6%; in the test on BT474, 11%; in the test with MDA-MB-453, 32.9%; in the test on MDA-MB-361, 13.9%; in the test with SK/Lap^R1.0, 25.1%; in the test with SK-BR3, 26.3%.

Regarding `Clc1cccc(CNC2CCN(Cc3cnc(Cl)s3)CC2)c1` [Example 13, N-(3-chlorobenzyl)-N-{1-[(2-chlorothiazol-5-yl)methyl]piperidin-4-yl}amine], the inhibition at 5 µM in the test on BT/Lap^R1.0 turned out to be 7.2%; in the test on BT474 it was 3.8%; with MDA-MB-453, 2.4%; with MDA-MB-361, 3.2%; with SK/Lap^R1.0 it was 4.1%; with SK-BR3, 17.9%.

Turning to `CN(Cc1ccc(C#N)cc1)C1CCN(Cc2cnc(Cl)s2)CC1` [Example 15, N-methyl-N-(4-cyanobenzyl)-N-{1-[(2-chlorothiazol-5-yl)methyl]piperidin-4-yl}amine], the inhibition at 5 µM came out at 68.7% in the test with BT/Lap^R1.0; 69.3% with BT474; 68.5% in the test on MDA-MB-453; 35.6% with MDA-MB-361; 7.5% in the test with SK/Lap^R1.0; 41.5% with SK-BR3.

As to `CN(Cc1ccc(F)cc1)C1CCN(Cc2cnc(Cl)s2)CC1` [Example 16, N-methyl-N-(4-fluorobenzyl)-N-{1-[(2-chlorothiazol-5-yl)methyl]piperidin-4-yl}amine], the inhibition at 5 µM in the test with BT/Lap^R1.0 is 9%; with BT474, 7.1%; in the test with MDA-MB-453 it was 11%; in the test on MDA-MB-361, -1.3%; in the test with SK/Lap^R1.0, -0.1%; in the test with SK-BR3, 18.6%.

`CN(Cc1ccc(Cl)c(Cl)c1)C1CCN(Cc2cnc(Cl)s2)CC1` [Example 17, N-methyl-N-(3,4-dichlorobenzyl)-N-{1-[(2-chlorothiazol-5-yl)methyl]piperidin-4-yl}amine]: the inhibition at 5 µM amounted to 53.4% in the test on BT/Lap^R1.0; 45.4% in the test on BT474; 63.8% in the test with MDA-MB-453; 42.9% in the test on MDA-MB-361; 5.3% in the test with SK/Lap^R1.0; 34.3% in the test with SK-BR3.

Values taken from patent publication US10023565B2, “N,N′ substituted piperidinamine compounds, and preparation method and usage thereof” (Institute of Pharmacology and Toxicology Academy of …, priority 2013, dated 2018).
